Laboratory results published in PubChem BioAssay AID2060620 (Molecular Pharmacology Branch, DTP, NCI, 2025).
“And” between values parts separate entries of the source, which are not always exact repeats. Identical values can stand only once. Blank lines part the entries; values can stand above or below the molecule they belong to.

Test system: 328373-195-R-J1-PDC complex spheroids, viability % test/control
Assay: Anticancer human tumor 328373-195-R-J1-PDC patient-derived head and neck squamous carcinoma cell line growth inhibition [CLK]
Details: for viability, T/C: stronger effect = lower value
Description: A high-throughput screen of multi-cell type tumor spheroids was designed to identify active combinations of […] and targeted small molecules. Complex spheroids include a stromal component modeled by human endothelial cells (HUVEC) and fibroblasts modeled by human mesenchymal stem cells (MSCs). The concentration ranges selected for each drug and investigational agent were based upon clinically achievable concentrations if the clinical Cmax of the agent was known.
Compounds. The drugs and investigational agents: cirtuvivint (SM08502; NSC835563), CC-671 (NSC850746), vemurafenib (NSC761431), tapotoclax (NSC804041), sotorasib (NSC818433), adagrasib (NSC831453), MRTX-1133 (NSC836407), BAY2416964 (NSC825713), copanlisib (NSC816437), inavolisib (NSC800729), abemaciclib (NSC768073), osimertinib (NSC779217), entinostat (NSC756642), eltanexor (KPT-8602, NSC794443), venetoclax (NSC766270), ceralasertib (NSC777638), bortezomib (NSC756655), olaparib (NSC753686), talazoparib (NSC767125), alisertib (NSC759677), peposertib (NSC802822), gemcitabine (NSC613327), 5-fluorouracil (NSC19893), SN-38 (NSC673596), oxaliplatin (NSC266046), paclitaxel (NSC125973), and doxorubicin (NSC123127), were obtained from the National Cancer Institute (NCI) Developmental Therapeutics Program Chemical Repository. The FDA-approved anticancer drug set is available from the Developmental Therapeutics Program at https://dtp.cancer.gov/organization/dscb/obtaining/available plates.htm. […] The stock solutions were prepared in dimethyl sulfoxide (DMSO, Sigma-Aldrich, St. Louis, MO, cat. D2650), except for the platinum complexes which were prepared in saline (Quality Biological, Gaithersburg, MD, cat. 114-055-101), at 800-fold the tested concentration and stored at -70 degrees C prior to their use. All drugs and investigational agents were tested over a range starting from a high concentration at or near the clinical Cmax and decreasing in half-log increments. If the clinical Cmax for an agent had not been determined, the highest concentration tested was 10 microM.
Cell Culture. All cells were maintained in an incubator at 37 degrees C and 5% CO2 with 95% humidity. The PDC lines were cultured according to standard operating procedures established by the NCI PDMR. Briefly, all PDCs were thawed and cultured in Matrigel-coated flasks prepared with a working solution of 1X Ham's F-12 nutrient mix, without supplementation (Invitrogen, Waltham, MA, cat. 11765054), 100 U/mL penicillin-streptomycin (Invitrogen, cat. 15140122), and 2.5% Matrigel (Corning Inc., Corning, NY, cat. 354248) for the first three passages. The 947758-054-R-J2-PDC line was cultured in 6B/Colon 1A media, which includes advanced DMEM/F-12 (Thermo Fisher Scientific, cat. 12634028), 10 mM HEPES (Thermo Fisher Scientific, cat. 15630080), 1X GlutaMAX supplement (Thermo Fisher Scientific, cat. 35050061), 0.1 mg/mL primocin (InvivoGen, cat. ant-pm-2), 10% defined fetal bovine serum, heat inactivated (HyClone Laboratories Inc., cat. SH30070.03HI), 1.25 mM N-Acetyl-L-cysteine (Sigma-Aldrich, cat. A9165), 10 mM nicotinamide (Sigma-Aldrich, cat. N0636), 1X B-27 supplement (Thermo Fisher Scientific, cat. 17504044), 1X N-2 supplement (Thermo Fisher Scientific, cat. 17502048), and 10 microM Y-27632 dihydrochloride (Tocris Bioscience, cat. 1254). The 876862-298-R-J1-PDC was cultured in 6E media, which includes all 6B/Colon 1A media components plus 50% L-WRN conditioned media (ATCC, cat. CRL-3276), 50 ng/mL recombinant human EGF recombinant protein (hEGF; Thermo Fisher Scientific, cat. PHG0311), 10 ng/mL recombinant human fibroblast growth factor 10 (hGFG-10; PeproTech, cat. 100-26), 1 ng/mL recombinant human fibroblast growth factor 2 (hFGF-2; PeproTech, cat. 100-18B), and 1 µM prostaglandin E2 (PGE2; Tocris, cat. 2296). The 227483-062-R1-J1-PDC line was cultured in Panc media, containing all 6E components except hFGF-2, with the addition of 500 nM SB-431542 (Selleckchem, cat. S1067) and 10 nM gastrin (Tocris, cat. 3006). […]

[1] = curve of first compound, second compound 0.0316 µM
[2] = curve of first compound, second compound 0.1 µM
[3] = curve of first compound, second compound 0.316 µM
[4] = curve of first compound, second compound 1 µM
[5] = curve of first compound, second compound 3.16 µM
[6] = curve of first compound, second compound 10 µM
[7] = second compound 0.0316 µM, first compound 0.0316 µM
[8] = second compound 0.0316 µM, first compound 0.1 µM
[9] = second compound 0.0316 µM, first compound 0.316 µM
[10] = second compound 0.0316 µM, first compound 1 µM
[11] = second compound 0.0316 µM, first compound 3.16 µM
[12] = second compound 0.0316 µM, first compound 10 µM
[13] = second compound 0.1 µM, first compound 0.0316 µM
[14] = second compound 0.1 µM, first compound 0.1 µM
[15] = second compound 0.1 µM, first compound 0.316 µM
[16] = second compound 0.1 µM, first compound 1 µM
[17] = second compound 0.1 µM, first compound 3.16 µM
[18] = second compound 0.1 µM, first compound 10 µM
[19] = second compound 0.316 µM, first compound 0.0316 µM
[20] = second compound 0.316 µM, first compound 0.1 µM
[21] = second compound 0.316 µM, first compound 0.316 µM
[22] = second compound 0.316 µM, first compound 1 µM
[23] = second compound 0.316 µM, first compound 3.16 µM
[24] = second compound 0.316 µM, first compound 10 µM
[25] = second compound 1 µM, first compound 0.0316 µM
[26] = second compound 1 µM, first compound 0.1 µM
[27] = second compound 1 µM, first compound 0.316 µM
[28] = second compound 1 µM, first compound 1 µM
[29] = second compound 1 µM, first compound 3.16 µM
[30] = second compound 1 µM, first compound 10 µM
[31] = second compound 3.16 µM, first compound 0.0316 µM
[32] = second compound 3.16 µM, first compound 0.1 µM
[33] = second compound 3.16 µM, first compound 0.316 µM
[34] = second compound 3.16 µM, first compound 1 µM
[35] = second compound 3.16 µM, first compound 3.16 µM
[36] = second compound 3.16 µM, first compound 10 µM
[37] = second compound 10 µM, first compound 0.0316 µM
[38] = second compound 10 µM, first compound 0.1 µM
[39] = second compound 10 µM, first compound 0.316 µM
[40] = second compound 10 µM, first compound 1 µM
[41] = second compound 10 µM, first compound 3.16 µM
[42] = second compound 10 µM, first compound 10 µM
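Further: spheroids exposed to the agents for 7 days.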

Structure (SMILES): C=CC(=O)N1CCN(c2nc(=O)n(-c3c(C)ccnc3C(C)C)c3nc(-c4c(O)cccc4F)c(F)cc23)C(C)C1 (stereo unspecified) + CN1CCN(c2cc(C(=O)Nc3cc4cc(-c5cnn(C)c5)ccc4cn3)ccn2)CC1
IC50 [1]: > 10000 nM
IC50 [2]: > 10000 nM
IC50 [3]: < 31.6 nM
IC50 [4]: < 31.6 nM
IC50 [5]: < 31.6 nM
IC50 [6]: < 31.6 nM
viability, T/C [7]: 93.6%
viability, T/C [8]: 90.1%
viability, T/C [9]: 99.3%
viability, T/C [10]: 99%
viability, T/C [11]: 94%
viability, T/C [12]: 77.7%
viability, T/C [13]: 80%
viability, T/C [14]: 82.7%
viability, T/C [15]: 89.3%
viability, T/C [16]: 86.6%
viability, T/C [17]: 83.5%
viability, T/C [18]: 62.9%
viability, T/C [19]: 37.6%
viability, T/C [20]: 37.7%
viability, T/C [21]: 41.1%
viability, T/C [22]: 43.2%
viability, T/C [23]: 36.2%
viability, T/C [24]: 16.5%
viability, T/C [25]: 0.2%
viability, T/C [26]: 2.35%
viability, T/C [27]: 0.89%
viability, T/C [28]: 0.26%
viability, T/C [29]: 1.99%
viability, T/C [30]: 1.88%
viability, T/C [31]: 1.99%
viability, T/C [32]: 4.29%
viability, T/C [33]: 3.33%
viability, T/C [34]: 0.14%
viability, T/C [35]: 1.88%
viability, T/C [36]: 0.7%
viability, T/C [37]: 1.21%
viability, T/C [38]: 1.7%
viability, T/C [39]: 1.33%
viability, T/C [40]: 0.55%
viability, T/C [41]: 3.67%
viability, T/C [42]: 1%

IC50 (curve of compound): < 3.16 nM
Structure (SMILES): CCc1c2c(nc3ccc(O)cc13)-c1cc3c(c(=O)n1C2)COC(=O)[C@]3(O)CC
viability, T/C (compound 0.00316 µM): 12.7% and 12.1%
viability, T/C (compound 0.01 µM): 3.27% and 1.07%
viability, T/C (compound 0.0316 µM): 1.41% and 1.91%
viability, T/C (compound 0.1 µM): 3.19% and 1.33%
viability, T/C (compound 0.316 µM): 1.53% and 0.43%
viability, T/C (compound 1 µM): 2.07% and 1.46%

Structure (SMILES): CC(=O)O[C@H]1C(=O)[C@@]2(C)[C@H]([C@H](OC(=O)c3ccccc3)[C@]3(O)C[C@H](OC(=O)[C@H](O)[C@@H](NC(=O)c4ccccc4)c4ccccc4)C(C)=C1C3(C)C)[C@]1(OC(C)=O)CO[C@@H]1C[C@@H]2O + CN1CCN(c2cc(C(=O)Nc3cc4cc(-c5cnn(C)c5)ccc4cn3)ccn2)CC1
IC50 [1]: < 31.6 nM
IC50 [2]: < 31.6 nM
IC50 [3]: < 31.6 nM
IC50 [4]: < 31.6 nM
IC50 [5]: < 31.6 nM
IC50 [6]: < 31.6 nM
viability, T/C [7]: 7.74%
viability, T/C [8]: 4.32%
viability, T/C [9]: 7.3%
viability, T/C [10]: 5.75%
viability, T/C [11]: 9.83%
viability, T/C [12]: 12.9%
viability, T/C [13]: 2.72%
viability, T/C [14]: 2.97%
viability, T/C [15]: 8.34%
viability, T/C [16]: 5.1%
viability, T/C [17]: 7.93%
viability, T/C [18]: 9.97%
viability, T/C [19]: 3.35%
viability, T/C [20]: 5.31%
viability, T/C [21]: 5.81%
viability, T/C [22]: 5.22%
viability, T/C [23]: 5.91%
viability, T/C [24]: 10.6%
viability, T/C [25]: 0.18%
viability, T/C [26]: 0.12%
viability, T/C [27]: 0.12%
viability, T/C [28]: 0.07%
viability, T/C [29]: 0.08%
viability, T/C [30]: 0.07%
viability, T/C [31]: 2.71%
viability, T/C [32]: 0.11%
viability, T/C [33]: 0.12%
viability, T/C [34]: 0.08%
viability, T/C [35]: 0.76%
viability, T/C [36]: 2.99%
viability, T/C [37]: 1.85%
viability, T/C [38]: 1.39%
viability, T/C [39]: 0.15%
viability, T/C [40]: 0.17%
viability, T/C [41]: 2.04%
viability, T/C [42]: 2.05%
